Measurements: US20240041042A1, “1-(PYRIDYL)-5-AZINYLPYRAZOLE DERIVATIVES, AND THEIR USE FOR CONTROL OF UNDESIRED PLANT GROWTH” (Bayer Aktiengesellschaft, priority 2020, published 2024)

Legend:
Assay type in all cases: in vivo
[1] = tested on: Verconica persica (VERPE); assay: Pre-emergence herbicidal action against VERPE
In short: (§1)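 Application rates ran to 320 g/ha or lower, with several dosages tested on the same weeds. The compound, as wettable powder or emulsion concentrate, is sprayed pre-emergence onto soil over sown seeds; greenhouse growth follows, and effect is rated visually after roughly 3 weeks.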

Viola tricolor (VIOTR) [2] = assay: Post-emergence herbicidal action against VIOTR
In short: (§2)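 Rates were 320 g/ha or below, applied as aqueous WP/EC spray with 0.5% additive (600 l/ha) onto one-leaf-stage plants. About 3 weeks later in the greenhouse, damage was scored visually against untreated plants on a 0–100% scale, where 100% means plants died.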

[3] = tested on: Verconica persica (VERPE); assay: Post-emergence herbicidal action against VERPE; conditions: 320 g/ha, VERPE
In short: as §2

[4] = tested on: Abutilon theophrasti (ABUTH); assay: Pre-emergence herbicidal action against ABUTH; conditions: Dosage column 320 g/ha (title prints 3200 g/ha); scored visually after about 3 weeks; 100% = plants have died
In short: as §1

Lolium rigidum (LOLRI) [5] = assay: Pre-emergence herbicidal action against LOLRI
In short: as §1

Setaria viridis (SETVI) [6] = assay: Post-emergence herbicidal action against SETVI
In short: as §2

[7] = tested on: Alopecurus myosuroides (ALOMY); assay: Pre-emergence herbicidal action against ALOMY; conditions: scored visually after about 3 weeks, 100% = plants have died
In short: as §1

[8] = tested on: Echinochloa crus-galli (ECHCG); assay: Post-emergence herbicidal action against ECHCG
In short: as §2

Avena fatua (AVEFA) [9] = assay: Pre-emergence herbicidal action against AVEFA; conditions: 320 g/ha, visual scoring after about 3 weeks vs untreated controls
In short: as §1

[10] = tested on: Pharbitis purpurea (PHBPU); assay: Pre-emergence herbicidal action against PHBPU
In short: as §1

[11] = tested on: Echinochloa crus-galli (ECHCG); assay: Pre-emergence herbicidal action against ECHCG
In short: as §1

[12] = tested on: Alopecurus myosuroides (ALOMY); assay: Post-emergence herbicidal action against ALOMY; conditions: visual rating about 3 weeks after treatment vs untreated controls (100% = plants have died, 0% = like control plants)
In short: as §2

[13] = tested on: Polygonum convolvulus (POLCO); assay: Pre-emergence herbicidal action against POLCO
In short: as §1

[14] = tested on: Matricaria inodora (MATIN); assay: Pre-emergence herbicidal action against MATIN
In short: as §1

[15] = tested on: Amaranthus retroflexus (AMARE); assay: Pre-emergence herbicidal action against AMARE; conditions: visual scoring after about 3 weeks vs untreated controls
In short: as §1

Oryza sativa (ORYSA) = conditions: crop plant compatibility, 80 g/ha, effect in comparison to untreated controls
In short: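 Foliar application at the one-leaf stage: WP/EC formulation, 0.5% additive, 600 l/ha water. Greenhouse-grown in sandy loam. Endpoint is visual % injury relative to untreated controls at about 3 weeks.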

[16] = tested on: Digitaria sanguinalis (DIGSA); assay: Post-emergence herbicidal action against DIGSA; conditions: visual rating about 3 weeks after treatment
In short: as §2

[17] = tested on: Polygonum convolvulus (POLCO); assay: Post-emergence herbicidal action against POLCO; conditions: dosage 320 g/ha
In short: as §2

[18] = tested on: Pharbitis purpurea (PHBPU); assay: Post-emergence herbicidal action against PHBPU
In short: as §2

Lolium rigidum (LOLRI) [19] = assay: Post-emergence herbicidal action against LOLRI
In short: as §2

Avena fatua (AVEFA) [20] = assay: Post-emergence herbicidal action against AVEFA; conditions: visual rating about 3 weeks after treatment
In short: as §2

[21] = tested on: Digitaria sanguinalis (DIGSA); assay: Pre-emergence herbicidal action against DIGSA
In short: as §1

[22] = tested on: Abutilon theophrasti (ABUTH); assay: Post-emergence herbicidal action against ABUTH; conditions: 320 g/ha, visual rating about 3 weeks after treatment vs untreated controls (100% = plants have died, 0% = like control plants)
In short: as §2

Setaria viridis (SETVI) [23] = assay: Pre-emergence herbicidal action against SETVI
In short: as §1

Viola tricolor (VIOTR) [24] = assay: Pre-emergence herbicidal action against VIOTR
In short: as §1

[25] = tested on: Amaranthus retroflexus (AMARE); assay: Post-emergence herbicidal action against AMARE
In short: as §2

[26] = 80 g/ha, visual scoring after about 3 weeks vs untreated controls

| Post-emergence action against ORYSA in % (Oryza sativa (ORYSA)) [%] | Structure (SMILES) | Pre-emergence action against VERPE in % ([1]; dosage 320 g/ha) [%] | Post-emergence action against VIOTR in % (Viola tricolor (VIOTR) [2]; 80 g/ha) [%] | Post-emergence action against VIOTR in % (Viola tricolor (VIOTR) [2]; 320 g/ha) [%] | Pre-emergence action against ABUTH [4] [%] | Pre-emergence action against LOLRI in % (Lolium rigidum (LOLRI) [5]; dosage 320 g/ha) [%] | Post-emergence action against SETVI in % (Setaria viridis (SETVI) [6]; dosage 320 g/ha) [%] | Pre-emergence action against ALOMY ([7]; 320 g/ha) [%] | Post-emergence action against ECHCG in % ([8]; dosage 80 g/ha) [%] | Post-emergence action against ECHCG in % ([8]; dosage 320 g/ha) [%] | Pre-emergence action against PHBPU in % ([10]; dosage 320 g/ha) [%] | Pre-emergence action against ECHCG in % ([11]; dosage 320 g/ha) [%] | Post-emergence action against ALOMY in % ([12]; 80 g/ha) [%] | Post-emergence action against ALOMY in % ([12]; 320 g/ha) [%] | Pre-emergence action against POLCO in % ([13]; dosage 80 g/ha) [%] | Pre-emergence action against POLCO in % ([13]; dosage 320 g/ha) [%] | Pre-emergence action against MATIN in % ([14]; dosage 80 g/ha) [%] | Pre-emergence action against MATIN in % ([14]; dosage 320 g/ha) [%] | Pre-emergence action against AMARE in % ([15]; 80 g/ha) [%] | Pre-emergence action against AMARE in % ([15]; 320 g/ha) [%] | also measured |
| --- | --- | --- | --- | --- | --- | --- | --- | --- | --- | --- | --- | --- | --- | --- | --- | --- | --- | --- | --- | --- | --- |
| 0 | C[C@@H](Oc1nn(-c2nc(F)ccc2F)c(-c2ccc(F)nc2)c1C1CC1)C(=O)O [Example I-296] | 100 | 80 | 80 | 80 | 100 | 80 | 100 | 80 | 80 | 90 | 100 | 80 | 90 | 80 | 90 | 80 | 90 | 80 | 90 | Pre-emergence action against VERPE in % ([1]; dosage 80 g/ha): 90%; Post-emergence action against VERPE in % [3]: 80%; Pre-emergence action against ALOMY ([7]; 80 g/ha): 80%; Pre-emergence action against AVEFA in % (Avena fatua (AVEFA) [9]): 90%; Post-emergence action against DIGSA in % ([16]; 80 g/ha): 80%; Post-emergence action against DIGSA in % ([16]; 320 g/ha): 90%; Post-emergence action against POLCO in % [17]: 80%; Post-emergence action against PHBPU in % ([18]; dosage 320 g/ha): 90%; Post-emergence action against LOLRI in % (Lolium rigidum (LOLRI) [19]; dosage 80 g/ha): 80%; Post-emergence action against LOLRI in % (Lolium rigidum (LOLRI) [19]; dosage 320 g/ha): 80%; Post-emergence action against AVEFA in % (Avena fatua (AVEFA) [20]; 80 g/ha): 80%; Post-emergence action against AVEFA in % (Avena fatua (AVEFA) [20]; 320 g/ha): 80%; Pre-emergence action against DIGSA in % [21, 26]: 90%; Pre-emergence action against DIGSA in % ([21]; dosage 320 g/ha): 100%; Post-emergence action against ABUTH in % [22]: 80%; Pre-emergence action against SETVI in % (Setaria viridis (SETVI) [23]; dosage 80 g/ha): 90%; Pre-emergence action against SETVI in % (Setaria viridis (SETVI) [23]; dosage 320 g/ha): 100%; Pre-emergence action against VIOTR in % (Viola tricolor (VIOTR) [24]; 320 g/ha, Viola tricolor): 100%; Pre-emergence action against VIOTR in % (Viola tricolor (VIOTR) [24]; dosage 80 g/ha): 90% |
| 20 | COC(=O)C(C)COC(=O)COc1nn(-c2ccccn2)c(-c2cncc(F)c2)c1Cl (centres unmarked) [Example I-221] | 90 | 80 | 80 | 80 | 100 | 90 | 90 | 80 | 80 | 90 | 100 | 80 | 80 | 80 | 90 | 90 | 90 | 80 | 90 | Pre-emergence action against LOLRI in % (Lolium rigidum (LOLRI) [5]; dosage 80 g/ha): 80%; Post-emergence action against SETVI in % (Setaria viridis (SETVI) [6]; dosage 80 g/ha): 90%; Pre-emergence action against PHBPU in % ([10]; dosage 80 g/ha): 90%; Pre-emergence action against ECHCG in % ([11]; dosage 80 g/ha): 90%; Post-emergence action against AMARE in % ([25]; 80 g/ha, visual rating about 3 weeks after treatment vs untreated controls (100% = plants have died, 0% = like control plants)): 80%; Post-emergence action against AMARE in % ([25]; 320 g/ha, visual rating about 3 weeks after treatment): 90%; Post-emergence action against DIGSA in % ([16]; 320 g/ha): 80%; Post-emergence action against PHBPU in % ([18]; dosage 80 g/ha): 90%; Post-emergence action against PHBPU in % ([18]; dosage 320 g/ha): 100%; Post-emergence action against LOLRI in % (Lolium rigidum (LOLRI) [19]; dosage 80 g/ha): 80%; Post-emergence action against LOLRI in % (Lolium rigidum (LOLRI) [19]; dosage 320 g/ha): 90%; Post-emergence action against AVEFA in % (Avena fatua (AVEFA) [20]; 320 g/ha): 80%; Pre-emergence action against DIGSA in % [21, 26]: 90%; Pre-emergence action against DIGSA in % ([21]; dosage 320 g/ha): 100%; Pre-emergence action against SETVI in % (Setaria viridis (SETVI) [23]; dosage 80 g/ha): 90%; Pre-emergence action against SETVI in % (Setaria viridis (SETVI) [23]; dosage 320 g/ha): 100%; Pre-emergence action against VIOTR in % (Viola tricolor (VIOTR) [24]; 320 g/ha, Viola tricolor): 90%; Pre-emergence action against VIOTR in % (Viola tricolor (VIOTR) [24]; dosage 80 g/ha): 90% |
